From patent US6737383B1, “Herbicidal oxadiazolidines” (priority 1999, dated 2004)

Key:
smallflower flatsedge = test: Test B flood test smallflower flatsedge; assay type: in vivo, Cyperus difformis; details: Pre-emergence
Summary of the method: (§1)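 Plants were grown to the 2-leaf stage before treatment with test chemical, then held in a greenhouse for twelve to sixteen days. Injury was visually rated against untreated controls on a 0–10 scale, where 0 is no effect and 10 is complete control.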

corn = test: Test B pre/postemergence corn; assay type: in vivo, Zea mays; details: for Plant response rating, Corn: Postemergence; for Corn plant response rating: scale of 0 to 10 where 0 is no effect and 10 is complete control
Summary of the method: (§2)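 Test chemicals in a non-phytotoxic solvent mixture with surfactant were sprayed preemergence onto planted seeds and postemergence onto plants 2 to 18 cm tall (1- to 4-leaf stage). After twelve to sixteen days in a greenhouse, injury was visually rated against untreated controls from 0 (no effect) to 10 (complete control).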

rice = test: Test B flood test rice; assay type: in vivo, Oryza sativa; details: Pre-emergence
Summary of the method: as §1

surinam grass = test: Test B pre/postemergence surinam grass; assay type: in vivo, Brachiaria decumbens; details: for Plant response rating, B. signalgrass: Postemergence
Summary of the method: as §2

cocklebur = test: Test B pre/postemergence cocklebur; assay type: in vivo, Xanthium strumarium; details: for Plant response rating, Cocklebur: Postemergence; for Cocklebur plant response rating: scale of 0 to 10 where 0 is no effect and 10 is complete control
Summary of the method: as §2

blackgrass = test: Test B pre/postemergence blackgrass; assay type: in vivo, Alopecurus myosuroides; details: for Plant response rating, Blackgrass: Postemergence
Summary of the method: as §2

duck salad = test: Test B flood test duck salad; assay type: in vivo, Heteranthera limosa; details: Pre-emergence
Summary of the method: as §1

morningglory = test: Test B pre/postemergence morningglory; assay type: in vivo, Ipomoea hederacea; details: for Plant response rating, Morningglory: Postemergence; for Morningglory plant response rating: scale of 0 to 10 where 0 is no effect and 10 is complete control
Summary of the method: as §2

crabgrass = test: Test B pre/postemergence crabgrass; assay type: in vivo, Digitaria sanguinalis; details: for Plant response rating, Crabgrass: Postemergence; for Crabgrass plant response rating: scale of 0 to 10 where 0 is no effect and 10 is complete control
Summary of the method: as §2

soybean = test: Test B pre/postemergence soybean; assay type: in vivo, Glycine max; details: for Plant response rating, Soybean: Postemergence; for Soybean plant response rating: scale of 0 to 10 where 0 is no effect and 10 is complete control
Summary of the method: as §2

velvetleaf = test: Test B pre/postemergence velvetleaf; assay type: in vivo, Abutilon theophrasti; details: for Plant response rating, Velvetleaf: Postemergence; for Velvetleaf plant response rating: scale of 0 to 10 where 0 is no effect and 10 is complete control
Summary of the method: as §2

sugar beet = test: Test B pre/postemergence sugar beet; assay type: in vivo, Beta vulgaris; details: for Plant response rating, Sugarbeets: Postemergence; for Sugarbeets plant response rating: scale of 0 to 10 where 0 is no effect and 10 is complete control
Summary of the method: as §2

bamyardgrass = test: Test B flood test barnyardgrass; assay type: in vivo, Echinochloa crus-galli; details: Pre-emergence
Summary of the method: as §1

pigweed = test: Test B pre/postemergence pigweed; assay type: in vivo, Amaranthus retroflexus; details: for Plant response rating, Redroot pigweed: Postemergence; for Redroot pigweed plant response rating: scale of 0 to 10 where 0 is no effect and 10 is complete control
Summary of the method: as §2

giant foxtail = test: Test B pre/postemergence giant foxtail; assay type: in vivo, Setaria faberii; details: for Plant response rating, Giant foxtail: Postemergence; for Giant foxtail plant response rating: Preemergence, scale of 0 to 10 where 0 is no effect and 10 is complete control
Summary of the method: as §2

wild oat = test: Test B pre/postemergence wild oat; assay type: in vivo, Avena fatua; details: for Plant response rating, Wild oats: Postemergence; for Wild oats plant response rating: scale of 0 to 10 where 0 is no effect and 10 is complete control
Summary of the method: as §2

purple nutsedge = test: Test B pre/postemergence purple nutsedge; assay type: in vivo, Cyperus rotundus; details: for Plant response rating, Nutsedge: Postemergence; for Nutsedge plant response rating: scale of 0 to 10 where 0 is no effect and 10 is complete control
Summary of the method: as §2

bedstraw = test: Test B pre/postemergence bedstraw; assay type: in vivo, Galium aparine; details: for Plant response rating, Bedstraw: Postemergence
Summary of the method: as §2

wheat = test: Test B pre/postemergence wheat; assay type: in vivo, Triticum aestivum; details: for Plant response rating, Wheat: Postemergence; for Wheat plant response rating: scale of 0 to 10 where 0 is no effect and 10 is complete control
Summary of the method: as §2

rape = test: Test B pre/postemergence rape; assay type: in vivo, Brassica napus; details: for Plant response rating, Rape: Postemergence; for Rape plant response rating: scale of 0 to 10 where 0 is no effect and 10 is complete control
Summary of the method: as §2

[1] = Rate 1000 g/ha, scale 0 to 10 (0 no effect, 10 complete control)
[2] = Rate 125 g/ha, flood test species, scale 0 to 10 where 0 is no effect and 10 is complete control
[3] = Rate 250 g/ha, flood-test species, scale 0 to 10, 0 is no effect, 10 is complete control
[4] = Rate 500 g/ha, flood test species, scale 0 to 10 (0 no effect, 10 complete control)
[5] = Rate 125 g/ha, scale 0 to 10, 0 is no effect, 10 is complete control
[6] = Rate 500 g/ha, scale 0 to 10, 0 no effect, 10 complete control
[7] = Preemergence, Rate 250 g/ha, scale of 0 to 10 where 0 is no effect and 10 is complete control
[8] = Preemergence, Rate 500 g/ha, scale of 0 to 10 where 0 is no effect and 10 is complete control
[9] = Rate 250 g/ha, scale of 0 to 10 where 0 is no effect and 10 is complete control

CCOC(=O)C(C)N(C(=O)n1oc(=O)n(-c2c(C)cccc2OC)c1=O)c1ccc(F)cc1 (centres unmarked) [Compound 331]
0: S. Flatsedge plant response rating (smallflower flatsedge; [1]) | S. Flatsedge plant response rating (smallflower flatsedge; [2]) | S. Flatsedge plant response rating (smallflower flatsedge; [3]) | S. Flatsedge plant response rating (smallflower flatsedge; [4]) | Plant response rating, Corn (corn; [5]) | Corn plant response rating (0 to 10 scale) (corn; Preemergence, Rate 125 g/ha) | Corn plant response rating (corn; Preemergence, Rate 250 g/ha) | Corn plant response rating (corn; Preemergence, Rate 500 g/ha) | Plant response rating, Corn (corn; [6]) | Rice plant response rating (rice; [1]) | Rice plant response rating (rice; [2]) | Rice plant response rating (rice; [3]) | Rice plant response rating (rice; [4]) | Plant response rating, B. signalgrass (surinam grass; [5]) | B. signalgrass plant response rating (0 to 10 scale, 0 is no effect, 10 is complete control) (surinam grass; Preemergence, Rate 125 g/ha) | B. signalgrass plant response rating (surinam grass; [7]) | B. signalgrass plant response rating (surinam grass; [8]) | Plant response rating, B. signalgrass (surinam grass; [9]) | Plant response rating, B. signalgrass (surinam grass; [6]) | Plant response rating, Cocklebur (cocklebur; [5]) | Cocklebur plant response rating (0 to 10 scale) (cocklebur; Preemergence, Rate 125 g/ha) | Cocklebur plant response rating (cocklebur; Preemergence, Rate 250 g/ha) | Cocklebur plant response rating (cocklebur; Preemergence, Rate 500 g/ha) | Plant response rating, Cocklebur (cocklebur; [6]) | Plant response rating, Blackgrass (blackgrass; [5]) | Blackgrass plant response rating (0 to 10 scale) (blackgrass; Preemergence, Rate 125 g/ha) | Blackgrass plant response rating (blackgrass; [7]) | Blackgrass plant response rating (blackgrass; [8]) | Plant response rating, Blackgrass (blackgrass; [9]) | Plant response rating, Blackgrass (blackgrass; [6]) | Ducksalad plant response rating (duck salad; [1]) | Ducksalad plant response rating (duck salad; [2]) | Ducksalad plant response rating (duck salad; [3]) | Ducksalad plant response rating (duck salad; [4]) | Plant response rating, Morningglory (morningglory; [5]) | Morningglory plant response rating (0 to 10 scale) (morningglory; Preemergence, Rate 125 g/ha) | Morningglory plant response rating (morningglory; Preemergence, Rate 250 g/ha) | Morningglory plant response rating (morningglory; Preemergence, Rate 500 g/ha) | Plant response rating, Morningglory (morningglory; [6]) | Plant response rating, Crabgrass (crabgrass; [5]) | Crabgrass plant response rating (0 to 10 scale) (crabgrass; Preemergence, Rate 125 g/ha) | Crabgrass plant response rating (crabgrass; Preemergence, Rate 250 g/ha) | Crabgrass plant response rating (crabgrass; Preemergence, Rate 500 g/ha) | Plant response rating, Crabgrass (crabgrass; [6]) | Plant response rating, Soybean (soybean; [5]) | Soybean plant response rating (0 to 10 scale) (soybean; Preemergence, Rate 125 g/ha) | Soybean plant response rating (soybean; Preemergence, Rate 250 g/ha) | Soybean plant response rating (soybean; Preemergence, Rate 500 g/ha) | Plant response rating, Soybean (soybean; [6]) | Plant response rating, Velvetleaf (velvetleaf; [5]) | Velvetleaf plant response rating (0 to 10 scale) (velvetleaf; Preemergence, Rate 125 g/ha) | Velvetleaf plant response rating (velvetleaf; Preemergence, Rate 250 g/ha) | Velvetleaf plant response rating (velvetleaf; Preemergence, Rate 500 g/ha) | Plant response rating, Velvetleaf (velvetleaf; [6]) | Plant response rating, Sugarbeets (sugar beet; [5]) | Sugarbeets plant response rating (0 to 10 scale) (sugar beet; Preemergence, Rate 125 g/ha) | Sugarbeets plant response rating (sugar beet; Preemergence, Rate 250 g/ha) | Sugarbeets plant response rating (sugar beet; Preemergence, Rate 500 g/ha) | Plant response rating, Sugarbeets (sugar beet; [6]) | Barnyardgrass plant response rating (bamyardgrass; [1]) | Barnyardgrass plant response rating (bamyardgrass; [2]) | Barnyardgrass plant response rating (bamyardgrass; [3]) | Barnyardgrass plant response rating (bamyardgrass; [4]) | Plant response rating, Redroot pigweed (pigweed; [5]) | Redroot pigweed plant response rating (0 to 10 scale) (pigweed; Preemergence, Rate 125 g/ha) | Redroot pigweed plant response rating (pigweed; Preemergence, Rate 250 g/ha) | Redroot pigweed plant response rating (pigweed; Preemergence, Rate 500 g/ha) | Plant response rating, Redroot pigweed (pigweed; [6]) | Plant response rating, Giant foxtail (giant foxtail; [5]) | Giant foxtail plant response rating (giant foxtail; Rate 250 g/ha) | Giant foxtail plant response rating (giant foxtail; Rate 500 g/ha) | Plant response rating, Giant foxtail (giant foxtail; [6]) | Plant response rating, Wild oats (wild oat; [5]) | Wild oats plant response rating (0 to 10 scale) (wild oat; Preemergence, Rate 125 g/ha) | Wild oats plant response rating (wild oat; Preemergence, Rate 250 g/ha) | Wild oats plant response rating (wild oat; Preemergence, Rate 500 g/ha) | Plant response rating, Wild oats (wild oat; [6]) | Plant response rating, Nutsedge (purple nutsedge; [5]) | Nutsedge plant response rating (0 to 10 scale) (purple nutsedge; Preemergence, Rate 125 g/ha) | Nutsedge plant response rating (purple nutsedge; Preemergence, Rate 250 g/ha) | Nutsedge plant response rating (purple nutsedge; Preemergence, Rate 500 g/ha) | Plant response rating, Nutsedge (purple nutsedge; [6]) | Plant response rating, Bedstraw (bedstraw; [5]) | Bedstraw plant response rating (bedstraw; [8]) | Plant response rating, Bedstraw (bedstraw; [6]) | Plant response rating, Wheat (wheat; [5]) | Wheat plant response rating (0 to 10 scale) (wheat; Preemergence, Rate 125 g/ha) | Wheat plant response rating (wheat; Preemergence, Rate 250 g/ha) | Wheat plant response rating (wheat; Preemergence, Rate 500 g/ha) | Plant response rating, Wheat (wheat; [6]) | Plant response rating, Rape (rape; [5]) | Rape plant response rating (0 to 10 scale) (rape; Preemergence, Rate 125 g/ha) | Rape plant response rating (rape; Preemergence, Rate 250 g/ha) | Rape plant response rating (rape; Preemergence, Rate 500 g/ha) | Plant response rating, Rape (rape; [6])
